Where two headings read alike, the source gives them in different places.
What was measured:
[1] = molecular target: cloned human mu opioid receptor (Homo sapiens (Human), UniProt P35372); experiment: cell-based
Experimental: (§1) The efficacy of the various PEG-opioid conjugates was measured by their ability to inhibit cAMP formation following receptor activation. Studies were conducted in CHO cells heterologously expressing the cloned human mu, kappa or delta opioid receptors. cAMP was measured using a cAMP HiRange homogenous time-resolved fluorescence assay (HTRF Assay), that is based on a competitive immunoassay principle (Cisbio, Cat.#62AM6PEC).
(§2) Briefly, suspensions of cells expressing either the mu, kappa or delta opioid receptors were prepared in buffer containing 0.5 mM isobutyl-methyl xanthine (IBMX). […] EC50 values were calculated for each compound from a sigmoidal dose-response plot of concentrations versus maximum response. To determine if the compounds behaved as full or partial agonists in the system, the maximal response at the highest tested concentrations of compounds were compared to that produced by a known full agonist.

[2] = molecular target: T1, recombinant human mu opioid receptor (Homo sapiens (Human), UniProt P35372); format: binding
Experimental: (§3) Radioligand displacement was measured using scintillation proximity assays (SPA).
(§4) Briefly, serial dilutions of the test compounds were placed in a 96-well plate to which were added SPA beads, membrane and radioligand. The assay conditions for each opioid receptor subtype are described in Table 10 below. The plates were incubated for 8 hours-overnight at room temperature, spun at 1000 rpm to pellet the SPA beads, and radioactivity was measured using the TopCount® microplate Scintillation counter. Specific binding at each concentration of test compound was calculated by subtracting the non-specific binding measured in the presence of excess cold ligand. IC50 values were obtained by non-linear regression of specific binding versus concentration curves and Ki values were calculated using Kd values that were experimentally pre-determined for each lot of membrane preparations.

[3] = Intravenous pharmacokinetics in Sprague-Dawley rats
[4] = molecular target: recombinant human delta opioid receptor (Homo sapiens (Human), UniProt P41143); conditions: Ki relative to nalbuphine
Experimental: (§5) Using conventional receptor binding assay techniques, several molecules were assayed to determine binding activity at kappa, mu and delta opioid subtypes of opioid receptors.
(§6) Cells were plated in 24 well plates at a density of 0.2-0.3*10^6 cells/well and washed with assay buffer containing 50 mM Tris.HCl and 5 mM MgCl2 (pH 7.4). Competition binding assays were conducted in whole cells incubated with increasing concentrations of test compounds in the presence of appropriate concentration of radioligand. 0.5 nM ^3H Naloxone, 0.5 nM ^3H Diprenorphine and 0.5 nM ^3H DPDPE were used as the competing radioligands for mu, kappa and delta receptors respectively. Incubations were carried out for two hours at room temperature using triplicate wells at each concentration. At the end of the incubation, cells were washed with 50 mM Tris HCl (pH 8.0), solubilized with NaOH and bound radioactivity was measured using a scintillation counter.
(§7) Specific binding is determined by subtraction of the cpm bound in the presence of 50-100× excess of cold ligand. Binding data assays were analyzed using GraphPad Prism 4.0 and IC50 is generated by non-linear regression from dose-response curves.

[5] = molecular target: T1, recombinant human mu opioid receptor; format: binding; remark: listed apart in the source
Experimental: as §5, §6, §7

[6] = molecular target: cloned human kappa opioid receptor (Homo sapiens (Human), UniProt P41145); format: cell-based
Experimental: as §1, §2

[7] = molecular target: recombinant human kappa opioid receptor (Homo sapiens (Human), UniProt P41145); format: binding
Experimental: as §3, §4

CD-1 male mice = experiment: Phenylquinone writhing analgesic assay; format: in vivo, mouse; conditions: pretreatment 30 min before PQ
Experimental: Mice were treated according to standard protocols. Mice were given a single “pretreatment” dose of a compound lacking covalent attachment of a water-soluble, non-peptidic oligomer (i.e., non-PEG oligomer-modified parent molecule), a corresponding version comprising the compound covalently attached to a water-soluble, non-peptidic oligomer (i.e., the conjugate), or control solution (IV, SC, IP or orally) thirty minutes prior to the administration of the phenylquinone (PQ) solution. Each animal was given an IP injection of an irritant (phenylquinone, PQ) that induces “writhing” which may include: contractions of the abdomen, twisting and turning of the trunk, arching of the back, and the extension of the hindlimbs. Each animal was given an IP injection of PQ (1 mg/kg PQ, 0.1 mL/10 g bodyweight). After the injection, the animals were returned to their observation enclosure and their behavior was observed. Contractions were counted between 35 and 45 minutes after the “pretreatment”. The animals were used once. Each tested article was dosed at a range between 0.1 and 100 mg/kg (n=5-10 animals/dose).

in vivo [8] = conditions: male, Sprague-Dawley, rat, plasma, iv, 1 mg/kg
[9] = Oral pharmacokinetics in Sprague-Dawley rats; conditions: male, rat, plasma, 5 mg/kg
in vivo [10] = conditions: male, Sprague-Dawley, rat, plasma, 5 mg/kg
[11] = inhibition of cAMP formation, 3 μM forskolin, CHO cells
[12] = inhibition of cAMP formation, maximal response vs known full agonist
[13] = SPA, CHO-K1 membranes, [3H]DAMGO 6 nM
[14] = hydroxycodone series, IV 1 mg/kg, rats, Mean ± SD
[15] = male, Sprague-Dawley, rat, plasma, iv, 1 mg/kg

Chain of recombinant human delta opioid receptor (P41143 whole entry, looked up): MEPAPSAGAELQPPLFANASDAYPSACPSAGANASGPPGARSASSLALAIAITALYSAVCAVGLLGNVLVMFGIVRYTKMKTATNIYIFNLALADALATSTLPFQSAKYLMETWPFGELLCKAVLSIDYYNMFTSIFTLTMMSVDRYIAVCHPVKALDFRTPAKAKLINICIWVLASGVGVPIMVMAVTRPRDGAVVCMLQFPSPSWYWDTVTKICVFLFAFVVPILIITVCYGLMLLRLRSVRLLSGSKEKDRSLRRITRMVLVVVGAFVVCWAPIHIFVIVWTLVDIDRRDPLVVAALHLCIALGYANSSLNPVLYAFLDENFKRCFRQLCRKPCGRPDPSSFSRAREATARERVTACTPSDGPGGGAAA

Row | Molecule | EC50 [1, 11] | MU OPIOID RECEPTOR % max effect [1, 12] | Ki [2, 13] | AUCall [3, 14] | AUCinf [3, 14] | CL [3, 14] | Cmax [3, 14] | MRTlast [3, 14] | T1/2(z) [3, 14] | Vss [3, 14] | EC50 [1] | MU OPIOID RECEPTOR % max effect [1] | Ki [2] | other results
1 | COCCOCCOCCOCCOCCOCCO[C@H]1CC[C@@]2(O)[C@H]3Cc4ccc(OC)c5c4[C@@]2(CCN3C)[C@H]1O5 [α-6-mPEG6-O-Hydroxycodone, α-6-mPEG6-O-hydroxycodone] | 12.5 µM | 102% | 1.9 µM | 12600 ± 2370 ng·min/mL | 13100 ± 2390 ng·min/mL | 77.9 ± 14.4 mL/min/kg | 445 ± 83.6 ng/mL | 47.7 ± 1.41 min | 62.2 ± 5.17 min | 4.68 ± 0.938 L/kg |  |  |  | 
2 | COCCOCCOCCOCCO[C@H]1CC[C@@]2(O)[C@H]3Cc4ccc(O)c5c4[C@@]2(CCN3CC2CCC2)[C@H]1O5 [6-O-mPEG4-Nalbuphine, 6-O-mPEG4-nalbuphine] |  |  |  |  |  |  |  |  |  |  |  |  |  | Fold vs Nalbuphine At DELTA [4]: 0.47; Fold vs Nalbuphine At MU [5]: 1.23
3 | α-6-mPEG6-O-codeine |  |  |  |  |  |  |  |  |  |  | 97.4 µM | 80% | 14.2 µM | KAPPA OPIOID RECEPTOR % max effect [6]: 21%; Ki [7]: > 160 µM
4 | α-6-mPEG1-O-codeine |  |  |  |  |  |  |  |  |  |  | 8.57 µM | 80% | 1.82 µM | KAPPA OPIOID RECEPTOR % max effect [6]: 51%; Ki [7]: 54.7 µM
5 | α-6-mPEG5-O-codeine |  |  |  |  |  |  |  |  |  |  |  |  |  | KAPPA OPIOID RECEPTOR % max effect [6]: 60%; Ki [7]: 59.1 µM
6 | COCCOCCOCCOCCO[C@H]1CC[C@@]2(O)[C@H]3Cc4ccc(OC)c5c4[C@@]2(CCN3C)[C@H]1O5 [α-6-mPEG4-O-Hydroxycodone, α-6-mPEG4-O-hydroxycodone] |  |  |  |  | 11600 ± 827 ng·min/mL | 86.5 ± 6.36 mL/min/kg | 537 ± 31.0 ng/mL | 35.6 ± 2.88 min | 43.6 ± 3.27 min | 3.34 ± 0.113 L/kg | 3.71 µM | 109% | 0.893 µM | ED50 (mPEGn-O-HydroxyCodone series) (CD-1 male mice): 17.31 mg/kg
7 | COCCOCCOCCO[C@H]1CC[C@@]2(O)[C@H]3Cc4ccc(OC)c5c4[C@@]2(CCN3C)[C@H]1O5 [α-6-mPEG3-O-Hydroxycodone, α-6-mPEG3-O-hydroxycodone] | 2.83 µM | 108% | 0.775 µM | 13800 ± 1050 ng·min/mL |  | 71.7 ± 4.99 mL/min/kg | 746 ± 2.08 ng/mL | 32.5 ± 1.92 min | 48.5 ± 7.83 min | 2.62 ± 0.206 L/kg |  |  |  | 
8 | α-6-mPEG9-O-codeine |  |  |  |  |  |  |  |  |  |  | 48.2 µM | 80% | 9.98 µM | 
9 | COCCOCCO[C@H]1CC[C@@]2(O)[C@H]3Cc4ccc(OC)c5c4[C@@]2(CCN3C)[C@H]1O5 [α-6-mPEG2-O-Hydroxycodone, α-6-mPEG2-O-hydroxycodone] | 5 µM | 101% | 0.632 µM | 12000 ± 1610 ng·min/mL | 12200 ± 1650 ng·min/mL | 83.3 ± 10.8 mL/min/kg | 513 ± 48.8 ng/mL | 37.0 ± 2.60 min | 44.6 ± 1.80 min | 3.36 ± 0.298 L/kg |  |  |  | 
10 | COCCO[C@H]1CC[C@@]2(O)[C@H]3Cc4ccc(OC)c5c4[C@@]2(CCN3C)[C@H]1O5 [α-6-mPEG1-O-Hydroxycodone, α-6-mPEG1-O-hydroxycodone] | 3.84 µM | 102% | 0.654 µM |  |  |  |  |  |  |  |  |  |  | ED50 (mPEGn-O-HydroxyCodone series) (CD-1 male mice): 6.064 mg/kg
11 | COCCOCCOCCOCCOCCOCCOCCO[C@H]1CC[C@@]2(O)[C@H]3Cc4ccc(OC)c5c4[C@@]2(CCN3C)[C@H]1O5 [α-6-mPEG7-O-Hydroxycodone, α-6-mPEG7-O-oxycodone] | 7.45 µM | 101% | 1.61 µM | 14300 ± 583 ng·min/mL | 15800 ± 728 ng·min/mL | 63.3 ± 2.99 mL/min/kg | 489 ± 26.5 ng/mL | 54.3 ± 0.372 min | 87.0 ± 3.25 min | 5.31 ± 0.139 L/kg |  |  |  | 
12 | COc1ccc2c3c1O[C@H]1[C@@H](O)C=C[C@H]4[C@@H](C2)N(C)CC[C@@]341 [Codeine] |  |  |  |  |  |  |  |  |  |  |  |  |  | AUC (in vivo [8]): 183 ng·h/mL; AUC(0-inf) (in vivo [8]): 190 ng·h/mL; Cmax (in vivo [8]): 469 ± 20.4 ng/mL; MRT last (in vivo [8]): 40.2 min; Vd (in vivo [8]): 4.14 ± 0.7 L/kg; clearance (in vivo [8]): 89.7 ± 15.3 mL/min/kg; Tmax [9]: 15 min; bioavailability (in vivo [10]; oral): 0.52%; AUC (in vivo [10]; po): 5.47 ng·h/mL; AUC(0-inf) (in vivo [10]; po): 7.18 ng·h/mL; Cmax (in vivo [10]; po): 6.24 ± 2.51 ng/mL; MRT last (in vivo [10]; po): 33.2 min
13 | α-6-mPEG2-O-codeine |  |  |  |  |  |  |  |  |  |  | 5.15 µM | 75% | 1.38 µM | EC50 [6]: 40.1 µM; KAPPA OPIOID RECEPTOR % max effect [6]: 59%; Ki [7]: 22.6 µM
14 | COc1ccc2c3c1O[C@H]1C(O)CC[C@@]4(O)[C@@H](C2)N(C)CC[C@]314 (stereo partly drawn) [Hydroxycodone, α-6-hydroxycodone, reference compound] | 3.16 µM |  |  |  |  |  |  |  |  |  |  |  |  | 
15 | COc1ccc2c3c1O[C@H]1C(=O)CC[C@@]4(O)[C@@H](C2)N(C)CC[C@]314 [Oxycodone, reference compound] |  |  |  |  |  |  |  |  |  |  |  |  |  | AUC [9]: 75.3 ng·h/mL; Cmax [9]: 25.5 ± 1.86 ng/mL; MRT last [9]: 179 min; Tmax [9]: 15 min; Emax ([1]; CHO, read-out: MU OPIOID RECEPTOR % max effect): 95%; AUC [3, 15]: 213 ng·h/mL; AUC(0-inf) [3, 15]: 217 ng·h/mL; Cmax [3, 15]: 495 ± 56 ng/mL; MRT last [3, 15]: 37 min; clearance [3, 15]: 77.1 ± 6.26 mL/min/kg; half-life [3, 15]: 47 ± 3.99 min
16 | COCCOCCOCCOCCOCCO[C@H]1CC[C@@]2(O)[C@H]3Cc4ccc(OC)c5c4[C@@]2(CCN3C)[C@H]1O5 [α-6-mPEG5-O-Hydroxycodone, α-6-mPEG5-O-hydroxycodone] | 5.04 µM | 108% | 1.86 µM | 16900 ± 1800 ng·min/mL | 17700 ± 1990 ng·min/mL | 57.0 ± 6.07 mL/min/kg |  | 46.2 ± 1.86 min | 62.1 ± 3.85 min | 3.30 ± 0.184 L/kg |  |  |  | 
17 | COCCOCCOCCOCCOCCOCCOCCOCCOCCO[C@H]1CC[C@@]2(O)[C@H]3Cc4ccc(OC)c5c4[C@@]2(CCN3C)[C@H]1O5 [α-6-mPEG9-O-Hydroxycodone, α-6-mPEG9-O-hydroxycodone] |  |  |  | 16600 ± 2190 ng·min/mL | 21000 ± 4230 ng·min/mL | 48.9 ± 9.41 mL/min/kg | 955 ± 149 ng/mL | 52.7 ± 4.04 min |  | 6.35 ± 0.349 L/kg |  |  |  | mean t1/2 value as multiple of that of the parent molecule ([3]; IV 1 mg/kg, rats): 3 times
18 | α-6-mPEG4-O-codeine |  |  |  |  |  |  |  |  |  |  | 22.1 µM | 99% | 2.89 µM | Ki [7]: 97 µM
19 | α-6-mPEG7-O-codeine |  |  |  |  |  |  |  |  |  |  | 44.7 µM | 75% | 9.96 µM | 
